How the values were obtained:
zfERα = molecular target: T1, zfERα (Danio rerio, UniProt P57717); test: competitive binding assay vs [3H]-E2 on in vitro translated zfERα; design: containing the coding regions of each zebrafish estrogen receptor cDNA; species or system zebrafish; conditions: for receptor-binding activity: competition with [3H]-E2, ERα, Figure 8A
T1 sequence (P57717 1-569): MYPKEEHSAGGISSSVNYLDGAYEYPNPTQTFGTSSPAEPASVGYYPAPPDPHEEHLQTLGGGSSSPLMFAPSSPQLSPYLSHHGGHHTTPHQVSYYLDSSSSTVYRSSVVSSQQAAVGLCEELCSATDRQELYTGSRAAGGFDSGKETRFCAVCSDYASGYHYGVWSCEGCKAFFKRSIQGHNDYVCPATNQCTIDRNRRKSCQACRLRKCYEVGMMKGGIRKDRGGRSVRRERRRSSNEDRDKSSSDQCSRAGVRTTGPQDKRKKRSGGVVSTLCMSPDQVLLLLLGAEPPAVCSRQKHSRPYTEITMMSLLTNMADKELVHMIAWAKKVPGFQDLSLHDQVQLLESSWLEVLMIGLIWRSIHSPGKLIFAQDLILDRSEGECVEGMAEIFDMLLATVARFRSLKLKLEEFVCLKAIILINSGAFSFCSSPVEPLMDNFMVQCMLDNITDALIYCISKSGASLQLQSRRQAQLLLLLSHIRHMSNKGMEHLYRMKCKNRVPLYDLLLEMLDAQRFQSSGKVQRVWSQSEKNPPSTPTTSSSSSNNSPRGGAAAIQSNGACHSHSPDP
Protocol: (§1) We also performed a competitive binding assay to test the binding properties of our compounds of interest with the three zfERs (Blair et al., [2000]). The three zebrafish estrogen receptor proteins were synthesized using the Topo-pcDNA3 expression vector containing the coding region of zfERα, zfERβ1, and zfERβ2 (Menuet et al., [2002]). The TNT Quick Coupled Transcription/Translation Systems kit (Promega, Madison, WI, USA) was used for synthesis of zfER proteins by adding 1 μg of each ER expression vector and according to the manufacturer's protocol. […] IC50 were calculated using GraphPad Prism, version 6.07.

zfERβ1 [1] = molecular target: T2, zfERβ1 (Danio rerio, UniProt Q5PR29); test: competitive binding assay vs [3H]-E2 on in vitro translated zfERβ1; design: species or system zebrafish
T2 sequence (Q5PR29 1-592): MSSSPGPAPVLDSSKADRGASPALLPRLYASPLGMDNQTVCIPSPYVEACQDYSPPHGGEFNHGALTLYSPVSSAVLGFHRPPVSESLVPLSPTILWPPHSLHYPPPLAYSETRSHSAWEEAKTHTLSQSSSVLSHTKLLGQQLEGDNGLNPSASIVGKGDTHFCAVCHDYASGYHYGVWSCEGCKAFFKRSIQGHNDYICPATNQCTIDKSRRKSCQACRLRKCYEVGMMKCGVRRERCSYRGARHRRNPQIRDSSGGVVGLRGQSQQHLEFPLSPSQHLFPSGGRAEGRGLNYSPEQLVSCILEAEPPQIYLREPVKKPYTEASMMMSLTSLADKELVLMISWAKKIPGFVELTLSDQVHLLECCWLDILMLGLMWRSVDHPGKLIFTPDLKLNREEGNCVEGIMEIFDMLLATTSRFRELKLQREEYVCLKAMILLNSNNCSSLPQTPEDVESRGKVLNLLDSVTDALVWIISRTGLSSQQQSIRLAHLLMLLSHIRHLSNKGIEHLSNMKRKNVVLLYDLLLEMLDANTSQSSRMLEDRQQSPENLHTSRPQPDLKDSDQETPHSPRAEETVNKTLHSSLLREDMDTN
Protocol: as §1

zfERβ1 [2] = molecular target: T2, zfERβ1; test: cyp19a1b-luciferase reporter gene assay in U251-MG glial cells transfected with zfERβ1; format: cell-based, zebrafish; conditions: 10–6 M, 24 h, U251-MG cells with ERβ1, vs DMSO
Source text: The zfER-α, zfER-β1, and zfER-β2 expression vectors correspond to Topo-pcDNA3 expression vector (Invitrogen, San Diego, CA, USA), containing the coding regions of each zebrafish estrogen receptor cDNA as previously described (Menuet et al., [2002]). The cyp19a1b-Luciferase plasmid consists of 500 bp of the proximal promoter region of zebrafish cyp19a1b gene, containing an ERE, coupled to the luciferase reporter gene (Menuet et al., [2002]).
Human U251-MG glial cells were maintained in phenol red-free Dulbecco's Modified Eagle's Medium (DMEM; Life Technologies, Saint Aubin, France) supplemented with 10% fetal calf serum (Biowest, Nuaillé, France), 4 mM L-Glutamine (Gibco, Carlsbad, CA, USA) and 1 mM Na-Pyruvate (Life Technologies, Saint Aubin, France) and kept at 37°C and 5% CO2 atmosphere (Le Page et al., [2006]). The medium was also supplemented with 20 U/mL penicillin, 20 μg/mL streptomycin, and 50 ng/mL amphotericin B (Gibco). For transfections, cells were plated in 24-well plates at a density of 25,000 cells/ml in the same medium, except the fetal calf serum was charcoal-treated and used at a concentration of 2.5%. Cells were transfected with 25 ng/well either the vector expression containing or not the zfERα, zfERβ1, zfERβ2 coding region and cytomegalovirus [CMV]−β-Galactosidase, and 150 ng/well of the cyp19a1b-Luciferase reporter plasmid, using JetPEI as a transfection reagent (Polyplus Transfection, Illkirch, France). […] Luciferase activity was measured 24 h later (Luciferase assay system, Promega, Madison, WI, USA). β-Galactosidase activity was used to normalize transfection efficiency. Chemicals were tested in at least 3 independent experiments and each experiment was performed in triplicate.

zfERβ2 = zfERβ2 (Danio rerio, UniProt Q7ZU32)
zfERβ2, sequence (Q7ZU32 1-553): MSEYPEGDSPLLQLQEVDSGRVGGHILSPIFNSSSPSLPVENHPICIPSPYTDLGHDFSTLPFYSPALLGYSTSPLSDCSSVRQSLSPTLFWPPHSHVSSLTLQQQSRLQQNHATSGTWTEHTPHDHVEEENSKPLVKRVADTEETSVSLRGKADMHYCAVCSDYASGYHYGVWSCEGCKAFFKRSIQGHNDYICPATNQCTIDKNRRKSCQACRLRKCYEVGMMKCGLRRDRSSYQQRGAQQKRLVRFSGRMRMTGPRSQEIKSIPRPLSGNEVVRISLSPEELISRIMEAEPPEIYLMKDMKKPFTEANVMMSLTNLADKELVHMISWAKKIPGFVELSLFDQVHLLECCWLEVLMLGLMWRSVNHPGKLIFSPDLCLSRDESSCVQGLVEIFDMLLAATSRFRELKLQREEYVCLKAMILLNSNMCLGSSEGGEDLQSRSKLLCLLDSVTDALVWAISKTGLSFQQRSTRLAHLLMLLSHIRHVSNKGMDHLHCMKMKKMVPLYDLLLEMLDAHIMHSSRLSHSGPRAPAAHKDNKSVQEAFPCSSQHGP
Protocol: as §1

Compound	receptor-binding activity (zfERα)	IC50 (zfERα; displacement of 10^−9 M [3H]-E2, ERα) [nM]	IC50 (zfERβ1 [1]) [nM]	cyp19a1b-luciferase reporter gene induction (zfERβ1 [2])	receptor-binding activity (zfERβ1 [1]; competition with [3H]-E2, ERβ1, Figure 8B)	receptor-binding activity (zfERβ2)
Oc1ccc(C(c2ccc(O)cc2)(C(F)(F)F)C(F)(F)F)cc1 [BPAF, 2,2-bis(4-hydroxylphenyl)hexafluoropropane]	bind in vitro to ERα receptor	76	660	–	–	–
CC(c1ccccc1)(c1ccc(O)cc1)c1ccc(O)cc1 [BPAP, 4,4′-(1-phenylethylidene)bisphenol]	–	–	–	did not stimulate	–	–
O=S(=O)(c1ccc(O)cc1)c1ccc(O)cc1 [BPS, bis-(4-hydroxyphenyl)sulfone]	almost no binding affinities	–	–	did not stimulate	almost no binding affinities	almost no binding affinities

Source: publication PMC4805609, “Estrogenic Effects of Several BPA Analogs in the Developing Zebrafish Brain” (Frontiers in Neuroscience, 2016)
